Paper PMC3914206

What was measured:
[1] = biological target: T1, panel of 442 kinases (Homo sapiens, UniProt O96017); format: binding; conditions: Compound Concentration 10 µM
T1 construct: purchased KINOMEscan
From the text: (§1) We assessed the selectivity of members of this scaffold using the KINOMEscan methodology across a near comprehensive panel of 442 kinases [[18,27]].

[2] = biological target: T2, panel of 442 kinases (Homo sapiens, UniProt Q9UF33); format: binding; conditions: Compound Concentration 10 µM
T2 sequence (Q9UF33 23-1036): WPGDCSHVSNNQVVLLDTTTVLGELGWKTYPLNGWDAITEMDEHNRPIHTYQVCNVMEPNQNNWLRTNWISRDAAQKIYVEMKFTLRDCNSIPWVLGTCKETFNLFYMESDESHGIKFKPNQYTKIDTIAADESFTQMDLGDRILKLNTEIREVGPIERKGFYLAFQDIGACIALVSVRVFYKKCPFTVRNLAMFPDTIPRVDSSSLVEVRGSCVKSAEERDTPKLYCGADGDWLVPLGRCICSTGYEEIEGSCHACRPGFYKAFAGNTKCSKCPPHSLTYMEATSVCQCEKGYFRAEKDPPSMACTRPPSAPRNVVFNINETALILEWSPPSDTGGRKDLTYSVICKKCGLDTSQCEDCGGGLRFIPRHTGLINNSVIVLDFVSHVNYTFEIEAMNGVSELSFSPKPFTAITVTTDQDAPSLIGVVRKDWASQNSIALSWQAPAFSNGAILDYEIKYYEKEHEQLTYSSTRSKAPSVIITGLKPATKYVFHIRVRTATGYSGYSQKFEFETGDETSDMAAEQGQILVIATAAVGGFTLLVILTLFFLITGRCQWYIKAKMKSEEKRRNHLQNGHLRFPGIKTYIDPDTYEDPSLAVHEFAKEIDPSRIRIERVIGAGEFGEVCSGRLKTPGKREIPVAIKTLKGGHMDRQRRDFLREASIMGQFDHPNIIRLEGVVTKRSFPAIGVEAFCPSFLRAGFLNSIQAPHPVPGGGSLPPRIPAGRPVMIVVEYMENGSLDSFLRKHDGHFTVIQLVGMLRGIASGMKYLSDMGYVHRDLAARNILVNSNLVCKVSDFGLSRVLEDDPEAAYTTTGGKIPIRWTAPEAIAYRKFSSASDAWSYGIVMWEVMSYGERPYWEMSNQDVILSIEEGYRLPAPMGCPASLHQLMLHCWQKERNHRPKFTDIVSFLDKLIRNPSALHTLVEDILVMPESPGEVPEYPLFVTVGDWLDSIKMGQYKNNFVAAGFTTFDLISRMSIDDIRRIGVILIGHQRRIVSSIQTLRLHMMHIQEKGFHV
From the text: as §1

T1 sequence (O96017 whole entry): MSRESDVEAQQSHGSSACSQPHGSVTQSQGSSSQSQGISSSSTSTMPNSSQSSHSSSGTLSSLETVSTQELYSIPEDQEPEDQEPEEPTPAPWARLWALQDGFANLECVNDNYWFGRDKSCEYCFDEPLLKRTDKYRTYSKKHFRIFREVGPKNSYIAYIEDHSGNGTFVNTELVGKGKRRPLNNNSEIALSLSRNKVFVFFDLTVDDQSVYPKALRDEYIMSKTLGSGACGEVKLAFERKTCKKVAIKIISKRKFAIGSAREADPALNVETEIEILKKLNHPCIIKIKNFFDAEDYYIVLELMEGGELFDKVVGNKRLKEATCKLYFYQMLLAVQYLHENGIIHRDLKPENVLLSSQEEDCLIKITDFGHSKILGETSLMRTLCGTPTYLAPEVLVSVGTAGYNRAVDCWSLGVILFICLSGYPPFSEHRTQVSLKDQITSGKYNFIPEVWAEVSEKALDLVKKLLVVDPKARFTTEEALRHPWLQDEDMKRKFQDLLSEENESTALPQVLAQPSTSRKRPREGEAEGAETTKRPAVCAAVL

Compound	KINOMEscan: CHEK2 [1]	KINOMEscan: EPHA6 [2]
COc1cc(C(=O)N2CCC(N3CCN(C)CC3)CC2)ccc1Nc1ncc2c(n1)N(C)c1ccccc1C(=O)N2C [15 (LRRK2-IN-1)]	66	89
COc1cc(C(=O)N2CCC(N3CCN(C)CC3)CC2)ccc1Nc1ncc2c(n1)N1CCc3cccc(c31)C(=O)N2C [Compound 24]		97
COc1cc(C(=O)N2CCC(N3CCN(C)CC3)CC2)ccc1Nc1ncc2c(n1)N(C1CCCC1)c1ccccc1C(=O)N2C [Compound 25, 11-cyclopentyl-2-((2-methoxy-4-(4-(4-methylpiperazin-1-yl)piperidine-1-carbonyl)phenyl)amino)-5-methyl-5H-benzo[e]pyrimido[5,4-b][1,4]diazepin-6(11H)-one]	100	100
CCOc1cc(C(=O)N2CCC(N3CCN(C)CC3)CC2)ccc1Nc1ncc2c(n1)N(C1CCCC1)c1ccccc1C(=O)N2C [Compound 26]	100	100
